This is an account of results in patent publication US20100305134A1, “SPECIFIC INHIBITORS OF PTERIDINE REDUCTASE WITH ANTIPARASITIC ACTION” (priority 2007, published 2010).

Like-named read-outs stand apart in the source and are kept apart here.

One assay addresses TcPTR1 (Trypanosoma cruzi, UniProt O44029). Briefly: PTR1 enzyme inhibition (dihydrofolic acid substrate, NADPH cofactor), TcPTR1. The assay is classed as biochemical.
The target of a further assay is T1, LmDHFR (Leishmania major, UniProt P07382).
T1 construct: made in house
Briefly: biochemical. As to conditions: NI means no inhibition at 190 μM; read-out: DHFR Lm Ki.

For a further assay, the target named is T2, LmPTR1 (Leishmania major, UniProt Q01782).
T2 construct: made in house
T2 sequence (Q01782 1-288): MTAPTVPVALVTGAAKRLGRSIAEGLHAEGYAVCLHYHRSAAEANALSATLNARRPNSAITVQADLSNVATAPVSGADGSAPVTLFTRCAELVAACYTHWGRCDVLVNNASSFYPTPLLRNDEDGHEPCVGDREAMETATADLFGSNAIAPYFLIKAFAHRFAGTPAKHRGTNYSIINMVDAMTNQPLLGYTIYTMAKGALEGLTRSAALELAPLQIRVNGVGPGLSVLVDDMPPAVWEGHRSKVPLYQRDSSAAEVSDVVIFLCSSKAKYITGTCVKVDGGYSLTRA
Put plainly: biochemical. The assay is classed as biochemical. As to conditions: NI means no inhibition at 190 μM; read-out: PTR1 Lm Ki.

In a further assay the target is T3, h DHFR (Homo sapiens, UniProt P00374).
T3 construct: made in house
T3 sequence (P00374 1-187): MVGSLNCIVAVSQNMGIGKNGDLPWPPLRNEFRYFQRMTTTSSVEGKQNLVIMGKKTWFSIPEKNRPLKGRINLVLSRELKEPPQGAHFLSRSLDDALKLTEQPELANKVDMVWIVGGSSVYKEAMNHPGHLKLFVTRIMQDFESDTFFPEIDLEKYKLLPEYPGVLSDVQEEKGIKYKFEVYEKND
Briefly: DHFR enzyme inhibition (standard DHFR assay), human DHFR. The assay is classed as biochemical.

For another assay, the target named is T4, Lm TS (Leishmania major, UniProt P07382).
T4 construct: made in house
Put plainly: biochemical. The assay is classed as biochemical.

The target of a further assay is T5, hTS (Homo sapiens, UniProt P04818).
T5 construct: made in house
Briefly: TS enzyme inhibition (standard TS assay), human TS. The assay is classed as biochemical. As to conditions: NI means no inhibition at 190 μM; read-out: TS h Ki.

For a further assay, the target named is TS. Briefly: TS enzyme inhibition, three-value table lines (species column not resolvable). As to conditions: species column (h or Lm) not resolvable; NI means no inhibition at 190 μM, NI marks ⋄ Δ ▴ undefined; read-out: TS Ki (first value of three-value lines). The assay is classed as biochemical.
Assay [1] has as its system PTR1 overexpressing lines. Briefly: Parasite growth inhibition, PTR1 overexpressing lines. The assay is classed as cell-based. As to conditions: ratio of EC50 from PTR1 overexpressing lines to EC50 from WT lines.
Assay [2] deals with Tripanosoma cruzi amastigote form. Put plainly: Intracellular growth of Tripanosoma cruzi amastigote form. The assay is classed as cell-based. More on the design: unit of the concentration uncertain. As to conditions: 72 h exposure, control 100.
[3] abbreviates: NI means no inhibition at 190 μM, read-out: PTR1 Tc Ki.
The mark [4] stands for this setting: NI means no inhibition at 190 μM, read-out: DHFR h Ki.
Setting [5] is: NI means no inhibition at 190 μM; read-out: TS Lm Ki.

TcPTR1, sequence (O44029 entry or part of it): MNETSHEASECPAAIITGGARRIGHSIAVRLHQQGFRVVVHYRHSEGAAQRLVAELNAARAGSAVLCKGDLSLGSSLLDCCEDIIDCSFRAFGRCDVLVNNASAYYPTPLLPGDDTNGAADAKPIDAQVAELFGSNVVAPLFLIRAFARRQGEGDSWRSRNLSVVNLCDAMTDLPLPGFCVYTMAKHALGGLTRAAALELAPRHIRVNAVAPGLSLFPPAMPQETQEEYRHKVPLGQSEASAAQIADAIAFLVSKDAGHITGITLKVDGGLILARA
T5 sequence (P04818 whole entry): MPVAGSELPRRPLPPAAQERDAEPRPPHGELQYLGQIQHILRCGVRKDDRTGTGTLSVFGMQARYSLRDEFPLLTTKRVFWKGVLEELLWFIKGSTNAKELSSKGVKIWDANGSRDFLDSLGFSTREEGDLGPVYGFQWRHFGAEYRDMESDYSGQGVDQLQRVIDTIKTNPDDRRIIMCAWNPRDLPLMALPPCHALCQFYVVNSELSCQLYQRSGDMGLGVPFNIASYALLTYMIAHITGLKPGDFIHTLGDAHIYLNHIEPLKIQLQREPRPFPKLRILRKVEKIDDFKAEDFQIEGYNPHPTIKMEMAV
T4 sequence (P07382 whole entry): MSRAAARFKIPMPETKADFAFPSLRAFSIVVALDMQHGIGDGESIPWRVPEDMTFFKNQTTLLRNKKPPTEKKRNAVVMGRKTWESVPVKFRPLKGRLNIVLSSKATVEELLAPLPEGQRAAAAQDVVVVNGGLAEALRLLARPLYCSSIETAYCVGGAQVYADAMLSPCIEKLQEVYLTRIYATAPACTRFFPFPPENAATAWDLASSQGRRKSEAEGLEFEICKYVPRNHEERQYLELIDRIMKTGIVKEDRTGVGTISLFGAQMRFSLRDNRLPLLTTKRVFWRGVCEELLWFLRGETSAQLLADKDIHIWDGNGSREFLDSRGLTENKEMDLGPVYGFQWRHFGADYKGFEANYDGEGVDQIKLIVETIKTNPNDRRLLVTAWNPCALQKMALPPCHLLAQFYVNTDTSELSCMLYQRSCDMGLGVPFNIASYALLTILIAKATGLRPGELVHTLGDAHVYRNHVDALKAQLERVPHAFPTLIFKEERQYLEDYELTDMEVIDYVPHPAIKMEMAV
T1 sequence (P07382 whole entry): as above
Protocol for Lm TS: (§1) The compounds of the invention were tested against the following enzyme library: TcPTR1, LmPTR1, LmDHFR, LcTS, EcTS, CnTS, hTS, DHFR. The proteins were all purified following the known procedures (ref). The enzymes were purified through chromatographic methods that usually require a prepurification step using a ion exchange resin, than the eluted active fractions were pooled and a second purification step follows were a hydrophobic resin and sometimes a gel filtration resin is used as the final step. The protein is characterized using Mass Spectrometry and Specific Activity and concentration is detected. Moreover Km for the substrates is useful to set up the inhibition experiments. In general the protein is stored at −80° C. and defrozen in small quantities when necessary.
Protocol for LmDHFR: as §1
Protocol for LmPTR1: The compounds of the invention were tested against the following enzyme library: TcPTR1, LmPTR1, LmDHFR, LcTS, EcTS, CnTS, hTS, DHFR.
Protocol for TcPTR1: as §1
Protocol for h DHFR: as §1
Protocol for hTS: as §1

Usually Ki stands for the equilibrium dissociation constant of an inhibitor or competing ligand from its target. For the compound `COC(=O)C1CCN(C(=O)c2ccc(NCc3cnc4nc(N)nc(C)c4n3)cc2)CC1`, the inhibition constant Ki on TcPTR1 (setting [3]) was 7 µM; at LmDHFR, 4 µM; on LmPTR1, 0.1 µM; on h DHFR (setting [4]), 10 µM; on Lm TS (setting [5]) it was over 190 µM.

As for `O=C(O)C1CCN(C(=O)c2ccc(NCc3cnc4cccc(C(F)(F)F)c4n3)cc2)CC1`, the inhibitory constant (Ki) at TcPTR1 (setting [3]) is 75 µM; at LmDHFR it was 40 µM; on LmPTR1, 7 µM; on h DHFR (setting [4]), 56 µM; on Lm TS (setting [5]) it was over 190 µM; on hTS, 41 µM.

Turning to `Cc1cc(C(F)(F)F)cc2nc(-c3ccccc3)c(CNc3ccc(C(=O)N4CCC(C(=O)O)CC4)cc3)nc12`, the Ki is 20 µM at TcPTR1 (setting [3]); 17 µM at LmDHFR; 54 µM at h DHFR (setting [4]); over 190 µM at Lm TS (setting [5]); 13 µM on hTS.

Take `CCOC(=O)c1nc2ccccc2nc1CNc1ccc(C(=O)N2CCC(C(=O)O)CC2C(=O)O)cc1` (stereo not drawn): the inhibition constant (Ki) at TcPTR1 (setting [3]) is 38 µM; at LmDHFR, 75 µM; on LmPTR1, over 190 µM; on h DHFR (setting [4]), 24 µM; on Lm TS (setting [5]) it was over 190 µM; at hTS, 15 µM.

For `COC(=O)C1CCN(C(=O)c2ccc(NCc3nc4cc(C(F)(F)F)ccc4nc3-c3ccccc3)cc2)C(C(=O)OC)C1` (stereo not drawn), the Ki is 40 µM at TcPTR1 (setting [3]); 88 µM at LmDHFR; over 190 µM at LmPTR1; over 190 µM on h DHFR (setting [4]); over 190 µM on Lm TS (setting [5]); 13 µM on hTS.

For the compound `CCOC(=O)C1CCCCN1C(=O)c1ccc(NCc2cnc3ccc(C(F)(F)F)cc3n2)cc1` (stereo not drawn), the Ki at TcPTR1 (setting [3]) is 106 µM; on LmDHFR, 27 µM; at LmPTR1, 6 µM; on h DHFR (setting [4]), over 190 µM; on Lm TS (setting [5]) it was 86 µM; on hTS it was 12 µM.

As to `COC(=O)C1CCN(C(=O)c2ccc(N(C)Cc3cnc4nc(N)nc(N)c4n3)cc2)CC1`, the inhibitory constant (Ki) on h DHFR was 0.8 µM; at Lm TS (read-out: TS Lm Ki; NI means no inhibition at 190 μM), over 190 µM.

As to `CN(Cc1cnc2nc(N)nc(N)c2n1)c1ccc(C(=O)NC(CCC(=O)O)C(=O)O)cc1` (stereo not drawn), at TcPTR1, the Ki came out at 0.11 µM.

As for `COC(=O)C1CCN(C(=O)c2ccc(N(CCO)Cc3cnc4nc(N)nc(N)c4n3)cc2)CC1`, on TS, the Ki came to 64.5 µM.

With `CN(Cc1cnc2nc(N)nc(N)c2n1)c1ccc(C(=O)N[C@@H](CCC(=O)O)C(=O)O)cc1` [Mtx, methotrexate], the RDR in [1] amounted to 104.1.

In the case of `CCc1nc(N)nc(N)c1-c1ccc(Cl)cc1` [Pyr, pyrimetamine], the “% amastigotes (medium value)” value is given as 37.4% in [2] (10 (unit uncertain)) and 26.3% in assay [2] (20 (unit uncertain)). In assay [1], the RDR came to 2.3.
